Measured values taken from US8946436B2, “Oxazolidinone compounds and their uses in preparation of antibiotics” (Sichuan Gooddoctor Pharmaceutical Group Co., Ltd., priority 2011, dated 2015).
Converted amounts (≈) assume the structure as drawn. Read-outs that look alike come from different tables or passages of the source.

Tests used:
Format in all cases: cell-based
S. pneumoniae = assay: In vitro antibacterial activity (MIC), S. pneumoniae; settings: S. pneumoniae (10 strains)
Description: (§1) The test strain was inoculated into the liquid medium and cultured at 37° C. for 16-18 h. The culture liquid and MH medium were put into two blank wells of a 96-well plate, respectively. Then, the absorptions thereof were measured by a Microplate reader. The difference between the absorption values of the culture liquid and MH medium is the adsorption of the bacteria. The concentration of the culture liquid can be calculated according to the formula of 1OD=50 million CFU/mL. The culture liquid was diluted with the MH bouillon culture medium to 5000 CFU/mL for further use.
(§2) Compounds 12a, 13 and 14 were dissolved in DMSO to 1 mg/mL, and then filtered with a 0.22 μm filter to obtain the compound solutions. And then they were gradually diluted to a desired concentration (10× final concentration) with the liquid medium, so as to obtain a series of dilutions. The final concentration grade of the dilutions of each tested compound consists of 14 concentrations, which includes: 0.03125 μg/mL, […], 0.125 μg/mL, 0.25 μg/mL, […], 1 μg/mL, 2 μg/mL, 4 μg/mL, 8 μg/mL, 16 μg/mL, 32 μg/mL, 64 μg/mL, 128 μg/mL and 256 μg/mL.
(§3) 10 μL of each of the compound dilutions above was added into a well of a 96-well plate. 90 μL of the culture liquid (5000 CFU/mL) was added into each of the wells, respectively, mixed with the dilutions to render the tested compound concentration to the final concentration. The resulted mixture was incubated at 37° C. for 16-18 h, and then the OD630 thereof was measured. A culture liquid free of the tested compounds is used as a blank control, and three parallel tests with the same concentration of each compound were performed. The minimum inhibitory concentration (MIC) of each compound on the standard strain of Staphylococcus Aureus and other test strains was determined. Specifically, among the culture liquid contained in the wells of the micro-plate, the first three lowest concentrations under which growth of the test strains could be observed were chose for further evaluation of the MIC. A culture liquid free of tested compounds was used as a blank control. Each of the culture liquids was homogenized independently, and then was diluted with a sterile saline. Each of the diluted culture liquids was plated onto a MH bouillon plate and incubated at 37° C. for 20 h in incubator. After the incubation, the number of the colonies on each plate was counted. As compared with the blank control group, the lowest concentration of each of the test compound groups, at which 80% reduction in the colony number of the strains was achieved, was recorded as the MIC.

L-02 = assay: Cytotoxicity experiment (MTT), L-02; settings: L-02 normal cells
Description: (1) Inoculating cells: Experimental cells in the growth of logarithmic phase were collected and suspended. The cell concentration of the suspension was adjusted so that they could be inoculated into the wells of 96-well micro plate at a density between 10^3-10^4 cells per well (200 μl per well). (2) Culturing cells: The cells were cultured at normal conditions for 3 days and then exposed to 50 uM compounds for test. (3) Coloring reaction: At 24 h, 48 h and 72 h after the cells being exposed to the compounds for test, 200 μl culture medium containing 20 μl MTT solution (5 mg/ml) was added into each well, and the well was further incubated at 37° C. for 2 hours to terminate the incubation. After the incubation, the supernatants were removed from the wells. In the event there were suspended cells in the wells, centrifugation should be performed before removal of supernatant from the wells. After the removal, 150 μl DMSO was added to each well and mixed thoroughly by agitation for 10 mins to fully dissolve crystals. (4) Ascertainment of colorimetry: The absorbance value at 490 nm of each well was determined by Enzyme-linked immunosorbent Monitor. The growth curve of the experimental cells was plotted by taking time as x-coordinate and absorbance value as y-coordinate. In addition, an inhibition ratio could be calculated in accordance with the following formula: Inhibition ratio=(absorbance value of control group-absorbance value of administering group)/absorbance value of control group×100%.

E. faecalis = assay: In vitro antibacterial activity (MIC), E. faecalis; settings: E. faecalis (7 strains)
Description: as §1, §2, §3

[1] = test system: Enterococcus faecium-resistant vancomycin; assay: MIC against clinically isolated strains, vancomycin resistant Enterococcus faecium; settings: Enterococcus faecium-resistant vancomycin (12 strains)
Source text: Standard strains, including Staphylococcus aureus ATCC29213, S. pneumoniae ATCC49619, E. faecalis ATCC29212, are all available from the American Type Culture Collection.
Clinically isolated strains: There are total 120 clinical strains of gram-positive bacterium including: 37 strains of Staphylococcus aureus (consisting of 14 strains of methicillin sensitive Staphylococcus aureus MSSA and 23 strains of methicillin resistant Staphylococcus aureus MRSA); 27 strains of Streptococcus pneumoniae (consisting of 13 strains of penicillin sensitive Streptococcus pneumoniae PSSP and 14 strains of penicillin insensitive or resistant Streptococcus pneumoniae PISP+PRSP); 15 strains of Streptococcus pyogenes; 17 strains of Streptococcus agalactiae; 24 stains of Enterococcus faecium (consisting of 12 strains of vancomycin sensitive Enterococcus faecium and 12 strains of vancomycin resistant Enterococcus faecium).
(2) Tested compounds: Compound 13f was prepared by the methods above, with potency of over 98%; Linezolid was purchased from Pfizer, with potency of 100%.
Staphylococcus and Enterococcus faecium were incubated in Mueller-Hinton agar medium (MHA medium) at 35° C. for 16-20 h; S. pneumoniae was incubated in Cation-Adjusted Mueller-Hinton Broth medium (CAMHB medium) supplemented with 2.5-5.5% (v/v) lysed horse blood (LHB) at 35° C. for 20-24 h; and Streptococcus were incubated in sheep blood-containing medium (prepared by addition of 5% defibrinated sheep blood into MHA media) at 35° C. for 20-24 h in 5% CO2 environment (CO2 incubator). Before test of the compound activity, each stock of the bacteria strains was activated and colonized in the following manner: the stock was transferred and cultured in a liquid culture medium, the culture liquid was smeared onto an agar plate with an inoculating loop to obtain bacterial colonies on the plate after incubation, and then a colony of the bacteria was chose to be suspended into the liquid culture medium for performing the test of compound activity. As a result, fresh bacteria cells were applied to the test. The standard strains were used as sensitive bacterium to control the quality of the experiments, and a plate or tube containing no antibacterial compounds is used as a blank control for the growth of test strains.
The minimal inhibitory concentration (MIC) of the test compounds on the strains of Streptococcus pneumoniae was determined by a standard broth macrodilution method, while the MIC of the test compounds on the other bacteria stains was determined by standard agar double dilution methods. The concentration of the test compounds was in the range of 32 mg/L-0.016 mg/L. The bacterial suspensions to be tested were inoculated by a multipoint inoculator, and the inoculation amount at each point is 10^4 CFU. The MIC of the test compound to each strain of the bacteria was determined.

| Structure (SMILES) | MIC (S. pneumoniae; Streptococcus pneumoniae, read-out: MIC) [µg/mL] | cytotoxicity at 50 µM (L-02; Homo sapiens, L02, 48 h, read-out: Inhibition ratio) [%] | MIC (E. faecalis; Enterococcus faecalis, read-out: MIC) [µg/mL] | MICmode [1] [µg/L] | MICrange [1] [µg/L] | MIC (S. pneumoniae) [µg/mL] | Inhibition ratio (L-02; 50 uM, 48 h) [%] | MIC (E. faecalis) [µg/mL] | MIC50 [1] [µg/mL] | MIC90 [1] [µg/mL] |
| --- | --- | --- | --- | --- | --- | --- | --- | --- | --- | --- |
| CC(=O)NC[C@H]1CN(c2ccc(-n3cc(-c4ccccn4)cn3)c(F)c2)C(=O)O1 [Compound 13f, (S)-N-((3-(3-fluoro-4-(4-(pyridin-2-yl)-1H-pyrazol-1-yl)phenyl)-2-oxooxazolidin-5-yl)methyl)acetamide] | 0.25 to 1 (≈ 0.632 to 2.53 µM) | 2.74 | 0.5 to 2 (≈ 1.26 to 5.06 µM) | 1 | 1 to 2 | – | – | – | – | – |
| CC(=O)NC[C@H]1CN(c2ccc(N3CCOCC3)c(F)c2)C(=O)O1 [Linezolid, reference compound] | – | – | – | 1 | 1 to 2 | 2 to 32 | >50 | 4 to 32 | 0.001 (≈ 0.00296 µM) | 0.001 (≈ 0.00296 µM) |
